Assay results taken from patent publication US11098038B2, “Imidazole-based anticancer agents and derivatives thereof, and methods of making and using same” (The University of Toledo, priority 2017, dated 2021).

Legend:
SK-OV-3 = experiment: NCI 60 screen, SK-OV-3; assay type: cell-based; details: Homo sapiens, Ovarian
Procedure: (§1) The compounds synthesized were tested at the National Cancer Institute (NCI) for anti-proliferative activity in the 60 human tumor cell line assay.

CAKI-1 = experiment: NCI 60 screen, CAKI-1; assay type: cell-based; details: Homo sapiens, Renal
Procedure: as §1

HOP-92 = experiment: NCI 60 screen, HOP-92; assay type: cell-based; details: Homo sapiens, Non-Small Cell Lung
Procedure: as §1

SNB-75 = experiment: NCI 60 screen, SNB-75; assay type: cell-based; details: Homo sapiens, CNS
Procedure: as §1

SF-268 = experiment: NCI 60 screen, SF-268; assay type: cell-based; details: Homo sapiens, CNS
Procedure: as §1

BT-549 = experiment: NCI 60 screen, BT-549; assay type: cell-based; details: Homo sapiens, Breast
Procedure: as §1

NCI-H226 = experiment: NCI 60 screen, NCI-H226; assay type: cell-based; details: Homo sapiens, Non-Small Cell Lung
Procedure: as §1

A549/ATCC = experiment: NCI 60 screen, A549/ATCC; assay type: cell-based; details: Homo sapiens, Non-Small Cell Lung
Procedure: as §1

MCF7 = experiment: NCI 60 screen, MCF7; assay type: cell-based; details: Homo sapiens, Breast
Procedure: as §1

NCI/ADR-RES = experiment: NCI 60 screen, NCI/ADR-RES; assay type: cell-based; details: Homo sapiens, Ovarian
Procedure: as §1

SK-MEL-2 [1] = experiment: NCI 60 screen, SK-MEL-2 (second line); assay type: cell-based; details: Homo sapiens; Melanoma, SK-MEL-2 (second of two lines so named, r38)
Procedure: as §1

OVCAR-4 = experiment: NCI 60 screen, OVCAR-4; assay type: cell-based; details: Homo sapiens, Ovarian
Procedure: as §1

DU-145 = experiment: NCI 60 screen, DU-145; assay type: cell-based; details: Homo sapiens, Prostatic
Procedure: as §1

IGROV1 = experiment: NCI 60 screen, IGROV1; assay type: cell-based; details: Homo sapiens, IGROV-1, Ovarian
Procedure: as §1

RPMI-8226 = experiment: NCI 60 screen, RPMI-8226; assay type: cell-based; details: Homo sapiens, Leukemia
Procedure: as §1

CCRF-CEM = experiment: NCI 60 screen, CCRF-CEM; assay type: cell-based; details: Homo sapiens, Leukemia
Procedure: as §1

HS 578T = experiment: NCI 60 screen, HS 578T; assay type: cell-based; details: Homo sapiens, Breast
Procedure: as §1

SK-MEL-5 = experiment: NCI 60 screen, SK-MEL-5; assay type: cell-based; details: Homo sapiens, Melanoma
Procedure: as §1

HCT-116 = experiment: NCI 60 screen, HCT-116; assay type: cell-based; details: Homo sapiens, Colon
Procedure: as §1

MALME-3M = experiment: NCI 60 screen, MALME-3M; assay type: cell-based; details: Homo sapiens, Melanoma
Procedure: as §1

PC-3 = experiment: NCI 60 screen, PC-3; assay type: cell-based; details: Homo sapiens, Prostatic
Procedure: as §1

A498 = experiment: NCI 60 screen, A498; assay type: cell-based; details: Homo sapiens, Renal
Procedure: as §1

RXF393 = experiment: NCI 60 screen, RXF393; assay type: cell-based; details: Homo sapiens, RXF 393, Renal
Procedure: as §1

KM12 = experiment: NCI 60 screen, KM12; assay type: cell-based; details: Homo sapiens, Colon
Procedure: as §1

NCI-460 = experiment: NCI 60 screen, NCI-460; assay type: cell-based; details: Homo sapiens, Non-Small Cell Lung
Procedure: as §1

MDA-MB-468 = experiment: NCI 60 screen, MDA-MB-468; assay type: cell-based; details: Homo sapiens, Breast
Procedure: as §1

NCI-322M = experiment: NCI 60 screen, NCI-322M; assay type: cell-based; details: Homo sapiens, Non-Small Cell Lung
Procedure: as §1

786-0 = experiment: NCI 60 screen, 786-0; assay type: cell-based; details: Homo sapiens, Renal
Procedure: as §1

OVCAR-3 = experiment: NCI 60 screen, OVCAR-3; assay type: cell-based; details: Homo sapiens, Ovarian
Procedure: as §1

U251 = experiment: NCI 60 screen, U251; assay type: cell-based; details: Homo sapiens, U-251, CNS
Procedure: as §1

OVCAR-8 = experiment: NCI 60 screen, OVCAR-8; assay type: cell-based; details: Homo sapiens, Ovarian
Procedure: as §1

HT29 = experiment: NCI 60 screen, HT29; assay type: cell-based; details: Homo sapiens, HT-29, Colon
Procedure: as §1

K-562 = experiment: NCI 60 screen, K-562; assay type: cell-based; details: Homo sapiens, K562, Leukemia
Procedure: as §1

COLO 205 = experiment: NCI 60 screen, COLO 205; assay type: cell-based; details: Homo sapiens, Colon
Procedure: as §1

HL-60(TB) = experiment: NCI 60 screen, HL-60(TB); assay type: cell-based; details: Homo sapiens, Leukemia
Procedure: as §1

SK-MEL-2 [2] = experiment: NCI 60 screen, SK-MEL-2 (first line); assay type: cell-based; details: Homo sapiens; Melanoma, SK-MEL-2 (first of two lines so named, r37)
Procedure: as §1

HOP-62 = experiment: NCI 60 screen, HOP-62; assay type: cell-based; details: Homo sapiens, Non-Small Cell Lung
Procedure: as §1

SF-295 = experiment: NCI 60 screen, SF-295; assay type: cell-based; details: Homo sapiens, CNS
Procedure: as §1

SR = experiment: NCI 60 screen, SR; assay type: cell-based; details: Homo sapiens, Leukemia
Procedure: as §1

MDA-MB-231/ATCC = experiment: NCI 60 screen, MDA-MB-231/ATCC; assay type: cell-based; details: Homo sapiens, Breast
Procedure: as §1

UACC-62 = experiment: NCI 60 screen, UACC-62; assay type: cell-based; details: Homo sapiens, Melanoma
Procedure: as §1

HCT15 = experiment: NCI 60 screen, HCT15; assay type: cell-based; details: Homo sapiens, HCT-15, Colon
Procedure: as §1

MDA-MB-435 = experiment: NCI 60 screen, MDA-MB-435; assay type: cell-based; details: Homo sapiens, Melanoma
Procedure: as §1

T-47D = experiment: NCI 60 screen, T-47D; assay type: cell-based; details: Homo sapiens, T47D, Breast
Procedure: as §1

UACC-257 = experiment: NCI 60 screen, UACC-257; assay type: cell-based; details: Homo sapiens, Melanoma
Procedure: as §1

NCI-H522 = experiment: NCI 60 screen, NCI-H522; assay type: cell-based; details: Homo sapiens, Non-Small Cell Lung
Procedure: as §1

UO-31 = experiment: NCI 60 screen, UO-31; assay type: cell-based; details: Homo sapiens, Renal
Procedure: as §1

HCC-2998 = experiment: NCI 60 screen, HCC-2998; assay type: cell-based; details: Homo sapiens, Colon
Procedure: as §1

EKVX = experiment: NCI 60 screen, EKVX; assay type: cell-based; details: Homo sapiens, Non-Small Cell Lung
Procedure: as §1

ACHN = experiment: NCI 60 screen, ACHN; assay type: cell-based; details: Homo sapiens, Renal
Procedure: as §1

SF-539 = experiment: NCI 60 screen, SF-539; assay type: cell-based; details: Homo sapiens, CNS
Procedure: as §1

SNB-19 = experiment: NCI 60 screen, SNB-19; assay type: cell-based; details: Homo sapiens, CNS
Procedure: as §1

OVCAR-5 = experiment: NCI 60 screen, OVCAR-5; assay type: cell-based; details: Homo sapiens, Ovarian
Procedure: as §1

MOLT-4 = experiment: NCI 60 screen, MOLT-4; assay type: cell-based; details: Homo sapiens, Leukemia
Procedure: as §1

SN12C = experiment: NCI 60 screen, SN12C; assay type: cell-based; details: Homo sapiens, Renal
Procedure: as §1

NCI-H23 = experiment: NCI 60 screen, NCI-H23; assay type: cell-based; details: Homo sapiens, Non-Small Cell Lung
Procedure: as §1

LOX IMVI = experiment: NCI 60 screen, LOX IMVI; assay type: cell-based; details: Homo sapiens, Melanoma
Procedure: as §1

TK-10 = experiment: NCI 60 screen, TK-10; assay type: cell-based; details: Homo sapiens, Renal
Procedure: as §1

SW-620 = experiment: NCI 60 screen, SW-620; assay type: cell-based; details: Homo sapiens, Colon
Procedure: as §1

M14 = experiment: NCI 60 screen, M14; assay type: cell-based; details: Homo sapiens, Melanoma
Procedure: as §1

[3] = test system: chromosome alignment, centromeres, and spindle body; experiment: Fluorescence microscopy of chromosome alignment, centromeres and spindle body; assay type: cell-based; details: cells treated for several hours, FIGS. 8A-8B
Description: FIGS. 8A-8B: Color images showing effects of compound 25 on chromosome alignment, centromeres, and spindle body. Microtubules that make up the mitotic spindle are detected with an antibody linked to a green fluorophore, which was detected with a fluorescence microscope. Centromeres were detected with a far red fluorophore (they are pseudocolored pink). DNA was detected with Hoechst DNA stain, which is blue.
In normal cells (FIG. 8A, upper two panels), chromosomes line up between the spindle poles at metaphase. In cells treated with compound 25 for several hours (FIG. 8A, lower two panels), cells still enter mitosis but centromeres are found all over the cell (not just in the middle between the poles of the spindle). […] However, when ZM is combined with compound 25, what was observed was a very dramatic disruption of spindle architecture. […] Without wishing to be bound by theory, it is believed that both Aurora B and the targets of compound 25 work in parallel to control tubulin function. When either one is inhibited alone, there is no effect since the other pathway compensates. When both are inhibited, the defect is detected.

SMILES: CCn1ccnc1C(=O)/C=C/c1ccc(CC(=O)Nc2ccc(F)cc2)cc1 [Compound 31, (E)-2-(4-(3-(1-ethyl-1H-imidazol-2-yl)-3-oxoprop-1-en-1-yl)phenyl)-N-(4-fluorophenyl)acetamide]
- GI50 (SK-OV-3): 6.97 µM
- GI50 (CAKI-1): 5.08 µM
- GI50 (HOP-92): 3.32 µM
- GI50 (SNB-75): 2.81 µM
- GI50 (SF-268): 3.81 µM
- GI50 (BT-549): 2.94 µM
- GI50 (NCI-H226): 3.61 µM
- melting point: 219 to 220 °C
- GI50 (A549/ATCC): 4.16 µM
- GI50 (MCF7): 2.52 µM
- GI50 (NCI/ADR-RES): 5.37 µM
- GI50 (SK-MEL-2 [1]): 4.92 µM
- GI50 (OVCAR-4): 3.31 µM
- GI50 (DU-145): 4.45 µM
- GI50 (IGROV1): 4.63 µM
- GI50 (RPMI-8226): 2.28 µM
- GI50 (CCRF-CEM): 4.34 µM
- GI50 (HS 578T): 5.36 µM
- GI50 (SK-MEL-5): 5.74 µM
- GI50 (HCT-116): 1.84 µM
- GI50 (MALME-3M): 16.7 µM
- GI50 (PC-3): 7.06 µM
- GI50 (A498): 3.73 µM
- GI50 (RXF393): 3.39 µM
- GI50 (KM12): 3.06 µM
- GI50 (NCI-460): 2.64 µM
- GI50 (MDA-MB-468): 1.99 µM
- GI50 (NCI-322M): 3.49 µM
- GI50 (786-0): 4.36 µM
- GI50 (OVCAR-3): 3.92 µM
- GI50 (U251): 1.88 µM
- GI50 (OVCAR-8): 4.86 µM
- GI50 (HT29): 5.64 µM
- GI50 (K-562): 2.06 µM
- GI50 (COLO 205): 4.29 µM
- GI50 (HL-60(TB)): 3.18 µM
- GI50 (SK-MEL-2 [2]): 6.26 µM
- GI50 (HOP-62): 3.92 µM
- GI50 (SF-295): 4.41 µM
- GI50 (SR): 0.53 µM
- GI50 (MDA-MB-231/ATCC): 3.36 µM
- GI50 (UACC-62): 2.83 µM
- GI50 (HCT15): 1.93 µM
- GI50 (MDA-MB-435): 4.58 µM
- GI50 (T-47D): 3.8 µM
- GI50 (UACC-257): 14 µM
- GI50 (NCI-H522): 3.92 µM
- GI50 (UO-31): 2.65 µM
- GI50 (HCC-2998): 5.1 µM
- GI50 (EKVX): 3.59 µM
- GI50 (ACHN): 3.95 µM
- GI50 (SF-539): 2.93 µM
- GI50 (SNB-19): 3.58 µM
- GI50 (OVCAR-5): 4.97 µM
- GI50 (MOLT-4): 5.28 µM
- GI50 (SN12C): 3.71 µM
- GI50 (NCI-H23): 4.25 µM
- GI50 (LOX IMVI): 0.56 µM
- GI50 (TK-10): 6.01 µM
- GI50 (SW-620): 4.29 µM
- GI50 (M14): 3.02 µM

SMILES: COc1cc2c(Nc3ccc(NC(=O)c4ccccc4)cc3)ncnc2cc1OCCCN1CCOCC1 [ZM447439, reference compound]
- Chromosome alignment / centromere position [3]: Many misaligned chromosomes
